In US8673351B2, “Crystallization inhibitor and its use in gelatin capsules” (Ivax Pharmaceuticals S.R.O., priority 2005, dated 2014):

Assay: Titration of lipophilic capsule contents (placebo) with water until emulsification (robustness)
Type: physicochemical
Details: placebo capsule contents after the 5 w/w addition of the emulsion stabilizer; titrated with water at room temperature until clear oily liquid turns into milky turbid emulsion
Text: The resistance of the contents of gelatin capsules to the water passing inside was quantified by performing a titration experiment. While stirring constantly using a magnetic stirrer at room temperature, the lipophilic contents intended for capsules was gradually titrated with water until the clear oily liquid begins to change into a milky turbid emulsion.
The robustness of the contents was expressed in the following table as an amount of water, in % w/w, necessary to induce emulsification of the contents.

Row | Compound | Robustness (amount of water necessary to induce emulsification of the contents) [weight %]
1 | CCCCCCCC/C=C\CCCCCCCC(=O)OCC(O)CO (stereo not drawn) [Glyceryl monooleate] | 4.98
2 | Decaglyceryl decaoleate | 0.85
3 | Decaglyceryl monolaurate | 0.84
4 | Decaglyceryl monooleate | 1.02

The remaining lines, values ahead:

Row | Robustness (amount of water necessary to induce emulsification of the contents) [weight %] | Compound
5 | 3.23 | CCCCC/C=C\C/C=C\CCCCCCCC(=O)OCC(O)CO (stereo not drawn) [Glyceryl monolinoleate]
6 | 1.68 | Diglyceryl monooleate
